For this assay, the target named is metabotropic glutamate receptor (mGluR5) (Homo sapiens, UniProt P41594). In words: Cytosolic calcium studies with stably transfected cells (FLIPR). It counts as cell-based. Conditions: CHO-K1 cells expressing human mGluR5; agonist L-quisqualic acid; read-out: mGluR5_FLIPR_h_CHO_NAM IC50. Also on record: expressed in transfected cells; host or cells: CHO-K1 cells, IPTG-inducible expression. The protocol: Cytosolic Calcium Studies with Stably Transfected Cells:
Chinese hamster ovary cells (CHO-K1 cells), stably transfected for inducible expression of a human metabotropic glutamate receptor mGluR5, are seeded into black clear bottom 96 well plates at a density of 35.000 cells per well. The standard growth medium used (Dulbecco's modified Eagle Medium, DMEM plus L-proline) contains the appropriate inducer isopropyl-β-D-thiogalactopyranosid (IPTG) to achieve optimal receptor expression. One day after seeding the growth medium is exchanged for reconstituted Ca-Kit (Molecular Devices, USA) and incubated for one hour. Ca-Kit is reconstituted in an assay buffer containing 20 mM HEPES pH 7.4, glutamic-pyruvate transaminase, pyridoxal phosphate and sodium pyruvate in Hank's balanced salt solution (HBBS). Agonistic compounds to the receptor elicit increases in cytosolic calcium which can be measured as increases in fluorescence signals by use of a fluorescence imaging plate reader (Molecular Devices).
The fluorescence signal increase after addition of agonist reflects the increase of cytosolic calcium. Inconsistencies in the amount of cells per well are normalised by using the spatial uniformity correction of the FLIPR software. The mean of replicated temporal data (n=3-5) is calculated and used for graphical representation. For the evaluation of the pharmacology, the calcium changes in response to different concentrations of agonist or antagonist are determined using a maximum minus minimum (MaxMin) calculation.
All responses (RFU-values) are determined as percentage of control (=maximum response). EC50 and IC50 are calculated according the logistic equation using GraFit 5.0 (Erithacus Software, GB) or Prism 4.0 (GraphPad Software, USA).

Our source for the IC50 values is patent US7985753B2, “Substituted pyrazolo[1,5-A]pyrimidines as metabotropic glutamate receptor modulators” (MERZ PHARMA GmbH & Co. KGaA, priority 2006, dated 2011).

Chain of metabotropic glutamate receptor (mGluR5) (P41594 21-1212): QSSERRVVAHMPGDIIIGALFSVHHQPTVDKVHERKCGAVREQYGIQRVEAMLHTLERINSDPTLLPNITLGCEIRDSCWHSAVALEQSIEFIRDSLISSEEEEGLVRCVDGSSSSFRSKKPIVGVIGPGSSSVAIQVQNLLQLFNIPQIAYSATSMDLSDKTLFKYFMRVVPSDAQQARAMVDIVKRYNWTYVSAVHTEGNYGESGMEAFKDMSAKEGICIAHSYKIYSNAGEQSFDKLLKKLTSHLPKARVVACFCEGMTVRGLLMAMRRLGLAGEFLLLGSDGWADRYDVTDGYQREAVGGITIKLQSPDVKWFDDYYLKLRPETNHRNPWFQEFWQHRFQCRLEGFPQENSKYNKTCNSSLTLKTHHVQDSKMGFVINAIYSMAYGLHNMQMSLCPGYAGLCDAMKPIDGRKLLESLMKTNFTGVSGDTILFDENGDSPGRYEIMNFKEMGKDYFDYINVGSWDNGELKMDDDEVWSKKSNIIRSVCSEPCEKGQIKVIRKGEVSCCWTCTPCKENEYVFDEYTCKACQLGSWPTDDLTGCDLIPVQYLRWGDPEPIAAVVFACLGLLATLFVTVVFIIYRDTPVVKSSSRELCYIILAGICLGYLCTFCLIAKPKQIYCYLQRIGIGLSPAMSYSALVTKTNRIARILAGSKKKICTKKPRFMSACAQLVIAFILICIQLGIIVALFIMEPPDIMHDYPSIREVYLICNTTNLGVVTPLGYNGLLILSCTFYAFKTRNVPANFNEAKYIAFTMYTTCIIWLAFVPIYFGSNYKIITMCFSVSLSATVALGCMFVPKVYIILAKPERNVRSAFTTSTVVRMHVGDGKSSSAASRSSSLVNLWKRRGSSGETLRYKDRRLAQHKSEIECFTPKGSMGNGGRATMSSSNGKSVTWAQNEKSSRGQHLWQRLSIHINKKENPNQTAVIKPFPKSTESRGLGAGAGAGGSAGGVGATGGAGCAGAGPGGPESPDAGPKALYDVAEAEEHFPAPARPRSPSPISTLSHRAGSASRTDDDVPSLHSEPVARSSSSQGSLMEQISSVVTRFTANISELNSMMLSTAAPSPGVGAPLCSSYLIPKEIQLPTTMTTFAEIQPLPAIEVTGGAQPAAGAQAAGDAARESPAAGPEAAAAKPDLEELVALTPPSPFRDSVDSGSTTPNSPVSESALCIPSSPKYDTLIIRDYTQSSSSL

The term IC50 denotes the concentration that gives 50% inhibition. Turning to `O=C(c1cc2ncc(Cl)cn2n1)N1CCc2ncc(Br)cc2C1` [drawing 442, (3-Bromo-7,8-dihydro-5H-[1,6]naphthyridin-6-yl)-(6-chloro-pyrazolo[1,5-a]pyrrimidin-2-yl)-methanone], the half-maximal inhibitory concentration (IC50) was 167 nM.

Take `COc1ccc2c(c1)CCN(C(=O)c1cc3ncc(Br)cn3n1)C2C` (stereo not shown) [drawing 439, (6-Bromo-pyrazolo[1,5-a]pyrimidin-2-yl)-(6-methoxy-1-methyl-3,4-dihydro-1H-isoquinolin-2-yl)-methanone]: the concentration for half-maximal inhibition (IC50) was 159 nM.

Turning to `COc1cc2c(cc1O)CCN(C(=O)c1cc3ncc(Br)cn3n1)C2C` (stereo not shown) [Example 1, (6-Bromo-pyrazolo[1,5-a]pyrimidin-2-yl)-(6-hydroxy-7-methoxy-1-methyl-3,4-dihydro-1H-isoquinolin-2-yl)-methanone], the IC50 amounted to 267 nM.

Turning to `CC1c2ccc(F)cc2CCN1C(=O)c1cc2ncc(Cl)cn2n1` (stereo not shown) [drawing 436, (6-Chloro-pyrazolo[1,5-a]pyrimidin-2-yl)-(6-fluoro-1-methyl-3,4-dihydro-1H-isoquinolin-2-yl)-methanone], the IC50 was determined as 66.3 nM.

For `CC1c2cccc(Br)c2CCN1C(=O)c1cc2ncc(Cl)cn2n1` (stereo not shown) [drawing 441, (5-Bromo-1-methyl-3,4-dihydro-1H-isoquinolin-2-yl)-(6-chloro-pyrazolo[1,5-a]pyrimidin-2-yl)-methanone], the IC50 was 178 nM.

As for `COc1ccc2c(c1)CCN(C(=O)c1cc3ncc(Cl)cn3n1)C2C` (stereo not shown) [drawing 440, (6-Chloro-pyrazolo[1,5-a]pyrimidin-2-yl)-(6-methoxy-1-methyl-3,4-dihydro-1H-isoquinolin-2-yl)-methanone], the IC50 turned out to be 155 nM.

With `CC1CN(C(=O)c2cc3ncc(Cl)cn3n2)C(C)c2ccccc21` (stereo not shown) [drawing 437, (6-Chloro-pyrazolo[1,5-a]pyrimidin-2-yl)-(1,4-dimethyl-3,4-dihydro-1H-isoquinolin-2-yl)-methanone], the concentration for half-maximal inhibition (IC50) stood at 101 nM.

With `CC1CN(C(=O)c2cc3ncc(Br)cn3n2)C(C)c2ccccc21` (stereo not shown) [drawing 438, (6-Bromo-pyrazolo[1,5-a]pyrimidin-2-yl)-(1,4-dimethyl-3,4-dihydro-1H-isoquinolin-2-yl)-methanone], the IC50 was 161 nM.

For `CC1c2cc(F)ccc2CCN1C(=O)c1cc2ncc(Br)cn2n1` (stereo not shown) [drawing 434, (6-Bromo-pyrazolo[1,5-a]pyrimidin-2-yl)-(7-fluoro-1-methyl-3,4-dihydro-1H-isoquinolin-2-yl)-methanone], the IC50 amounted to 43.8 nM.

For the compound `CC1c2cccc(F)c2CCN1C(=O)c1cc2ncc(Br)cn2n1` (stereo not shown) [drawing 435, (6-Bromo-pyrazolo[1,5-a]pyrimidin-2-yl)-(5-fluoro-1-methyl-3,4-dihydro-1H-isoquinolin-2-yl)-methanone], the IC50 was found to be 56.5 nM.
